# Reference: article PMC11313788, “A Series of Novel 1-H-isoindole-1,3(2H)-dione Derivatives as Acetylcholinesterase and Butyrylcholinesterase Inhibitors: In Silico, Synthesis and In Vitro Studies” (Molecules, 2024)
# Assays:
# [1] = target: T1, acetylcholinesterase (AChE) from electrophorus electricus (Electrophorus electricus, UniProt O42275); assay: biochemical; assay type: biochemical; settings: for IC50: Ellman's method, 96-well plate, enzyme with compound incubated 20 min at 37 °C, phosphate buffer pH 8.0, three measurements; for Selectivity AChE: ratio of the IC50 values (BuChE/AChE), definition not given
# T1 construct: purchased Sigma-Aldrich
# T1 sequence (O42275 24-633): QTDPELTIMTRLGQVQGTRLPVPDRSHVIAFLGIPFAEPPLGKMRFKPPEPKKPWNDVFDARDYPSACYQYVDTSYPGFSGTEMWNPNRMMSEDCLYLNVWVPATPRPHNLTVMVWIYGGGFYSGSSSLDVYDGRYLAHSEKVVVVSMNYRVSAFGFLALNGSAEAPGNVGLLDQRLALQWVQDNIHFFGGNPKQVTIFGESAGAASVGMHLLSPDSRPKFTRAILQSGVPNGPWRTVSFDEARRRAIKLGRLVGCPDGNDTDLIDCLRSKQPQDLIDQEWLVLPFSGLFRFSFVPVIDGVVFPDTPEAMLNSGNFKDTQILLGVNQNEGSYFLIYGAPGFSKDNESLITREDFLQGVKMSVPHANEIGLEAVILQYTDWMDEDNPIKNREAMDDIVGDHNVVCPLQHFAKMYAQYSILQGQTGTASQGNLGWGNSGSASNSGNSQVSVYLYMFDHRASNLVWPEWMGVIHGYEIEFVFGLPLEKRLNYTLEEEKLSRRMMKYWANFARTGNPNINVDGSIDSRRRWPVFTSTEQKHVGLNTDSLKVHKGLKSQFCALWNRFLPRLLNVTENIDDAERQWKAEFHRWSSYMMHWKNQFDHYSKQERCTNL
# Description: (§1) To determine the inhibitory properties of the tested compounds against acetylcholinesterase and butyrylcholinesterase, Ellman’s method was used. […] For each system, measurements were carried out three times. Dose–response curve functions were fitted to the obtained results.
# (§2) The following reagents were used to evaluate the inhibiting activity: acetylcholinesterase (AChE) from electrophorus electricus (Sigma-Aldrich, Saint Louis, MO, USA), butyrylcholinesterase (BuChE) from horse serum, acetylthiocholine iodide (Sigma-Aldrich, Saint Louis, MO, USA), butyrylthiocholine iodide (Sigma-Aldrich, Saint Louis, MO, USA), 5,5′-Dithiobis-(2-nitrobenzoic acid) (DTNB, Sigma-Aldrich, Saint Louis, MO, USA). The enzymes were prepared by dissolving in phosphate buffer, pH = 8.0) with the final concentration 2 U/mL for AChE and 4 U/mL for BuChE. The stock solutions of acetylthiocholine iodide (10^−3 mol/dm^3), butyrylthiocholine iodide (10^−3 mol/dm^3) and DTNB (10^−3 mol/dm^3) were prepared in phosphate buffer. The inhibitory activity of derivatives was evaluated by Ellman’s colorimetric method in a 96-well plate. First, the enzyme solution with the tested compound was incubated for 20 min at 37 °C. Next, acetylthiocholine iodide or butyrylthiocholine iodide and DTNB were added.
# [2] = target: T2, butyrylcholinesterase (BuChE) from horse serum (Equus caballus, UniProt P81908); assay: biochemical; settings: for IC50: Ellman's method, 96-well plate, enzyme with compound incubated 20 min at 37 °C, phosphate buffer pH 8.0, three measurements; for Selectivity BuChE: ratio of the IC50 values (AChE/BuChE), definition not given
# T2 construct: butyrylcholinesterase (BuChE) from horse serum; from tissue; host or cells: horse serum
# T2 sequence (P81908 whole entry): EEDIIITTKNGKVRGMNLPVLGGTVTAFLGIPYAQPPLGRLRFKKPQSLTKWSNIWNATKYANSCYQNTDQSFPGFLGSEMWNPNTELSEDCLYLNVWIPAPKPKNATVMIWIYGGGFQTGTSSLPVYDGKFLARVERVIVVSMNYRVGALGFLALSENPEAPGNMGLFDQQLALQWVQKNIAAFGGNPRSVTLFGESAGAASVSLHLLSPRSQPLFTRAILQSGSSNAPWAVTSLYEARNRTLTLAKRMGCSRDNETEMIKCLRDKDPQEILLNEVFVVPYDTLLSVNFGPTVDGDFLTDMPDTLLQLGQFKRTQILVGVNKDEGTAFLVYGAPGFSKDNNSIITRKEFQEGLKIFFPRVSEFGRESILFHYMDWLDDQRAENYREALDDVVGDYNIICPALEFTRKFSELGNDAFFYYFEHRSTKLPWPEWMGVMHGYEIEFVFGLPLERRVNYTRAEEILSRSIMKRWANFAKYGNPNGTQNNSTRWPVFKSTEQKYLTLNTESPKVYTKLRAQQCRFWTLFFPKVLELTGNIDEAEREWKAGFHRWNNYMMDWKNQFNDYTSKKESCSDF
# Description: as §1, §2
Compound,IC50 [1] [µM],Selectivity AChE [1],IC50 [2] [µM],Selectivity BuChE [2],AChE inhibitory activity compared to derivative I ([1]; compared to the derivative with a benzene ring (I))
"O=C1c2ccccc2C(=O)N1CCN1CCN(c2ccc(C(F)(F)F)cc2)CC1 [II, N-{2-[4-(4-trifluoromethylphenyl)-1-piperazinyl]ethyl}-1H-isoindole-1,3(2H)-dione]",2.31 ± 0.36,10.70,24.7 ± 3.78,0.09,
O=C1c2ccccc2C(=O)N1CCN1CCN(c2ncccn2)CC1 [IV],3.9 ± 0.43,17.66,68.9 ± 7.82,0.06,about four-times less activity
"O=C1c2ccccc2C(=O)N1CCN1CCN(C(c2ccccc2)c2ccccc2)CC1 [III, N-{2-[4-(4-diphenylomethylo)-1-piperazinyl]ethyl}-1H-isoindole-1,3(2H)-dione]",1.94 ± 0.43,10.95,21.2 ± 4.84,0.09,
"O=C1c2ccccc2C(=O)N1CCN1CCOCC1 [Compound V, N-(2-morpholine)ethyl-1H-isoindole-1,3(2H)-dione]",16.2 ± 2.37,,> 1000,,
"O=C1c2ccccc2C(=O)N1CCN1CCN(c2ccccc2)CC1 [Compound I, N-[2-(4-phenyl-1-piperazinyl)ethyl]-1H-isoindole-1,3(2H)-dione]",1.12 ± 0.3,22.02,24.7 ± 1.74,0.05,
O=C1c2ccccc2C(=O)N1CCN1CCc2ccccc2C1 [Compound VI],1.14 ± 0.17,45.71,52.1 ± 9.73,0.02,
